Here are results for 30 compounds from patent US20240309003A1, “HETEROCYCLIC COMPOUNDS AS TRIGGERING RECEPTOR EXPRESSED ON MYELOID CELLS 2 AGONISTS AND METHODS OF USE” (Vigil Neuroscience, Inc., priority 2021, published 2024).

Usually pEC50 stands for −log10 of the EC50, conventionally taken in molar units. Read a high pEC50 as a low EC50.

SMILES strings stand for the structures. pEC50: −log10 of the molar value.

For one experiment, the target named is T1, human TREM2 (Homo sapiens, UniProt Q9NZC2).
T1 construct: expressed in transfected cells; host or cells: HEK293T
T1 sequence (Q9NZC2 19-230): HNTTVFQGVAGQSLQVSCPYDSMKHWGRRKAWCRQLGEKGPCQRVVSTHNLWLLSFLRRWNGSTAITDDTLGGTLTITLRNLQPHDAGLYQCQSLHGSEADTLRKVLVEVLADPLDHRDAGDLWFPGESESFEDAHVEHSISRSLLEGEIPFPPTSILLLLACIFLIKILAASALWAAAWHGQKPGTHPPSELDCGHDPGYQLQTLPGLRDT
T1 sequence (O43914 22-113 partner): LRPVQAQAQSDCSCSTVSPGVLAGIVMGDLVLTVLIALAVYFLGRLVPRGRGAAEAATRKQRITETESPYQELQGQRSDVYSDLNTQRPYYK
In words: TREM2 agonist potency by cellular phosphorylation of Syk (AlphaLisa) in HEK293T-hTREM2 cells. The settings on record: HEK293 cells expressing human TREM2 and DAP12, Table D. Format: cell-based. The method, boiled down:
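Agonist EC50 from a variable-slope four-parameter fit of % activation, based on AlphaLisa phospho-Syk levels in lysates. Cells: HEK293T-hTREM2 (with DAP12), treated 45 min at room temperature with compound in assay buffer.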
`[2H]C([2H])([2H])c1nc2nc([C@H]3CCO[C@@H](c4cnn(C5CC5)c4)C3)nc(-c3ccc(Cl)cc3F)c2nc1C([2H])([2H])[2H]` [Example 181, 4-(4-chloro-2-fluorophenyl)-2-((2R,4S)-2-(1-cyclopropyl-1H-pyrazol-4-yl)tetrahydro-2H-pyran-4-yl)-6,7-bis(methyl-d3)pteridine]: the pEC50 was over 7.30.

Turning to `Cc1nc2nc([C@@H]3CCO[C@H](c4ccc(=O)n(C)c4)C3)nc(-c3ccc(F)cc3F)c2nc1C` [Example 200], the pEC50 is over 7.30.

`COc1ncccc1[C@@H]1C[C@H](c2nc(-c3ccc(F)cc3F)c3nc(C)c(C)nc3n2)CCO1` [Example 160, 4-(2,4-difluorophenyl)-2-((2S,4R)-2-(2-methoxypyridin-3-yl)tetrahydro-2H-pyran-4-yl)-6,7-dimethylpteridine]: the pEC50 was 6.30 to 7.30.

With `Cc1cc([C@H]2C[C@@H](c3nc(-c4cc(F)c(Cl)c(F)c4)c4nc(C)c(C)nc4n3)CCO2)ccn1` [Example 133, 4-(4-chloro-3,5-difluorophenyl)-6,7-dimethyl-2-((2R,4S)-2-(2-methylpyridin-4-yl)tetrahydro-2H-pyran-4-yl)pteridine], the pEC50 is over 7.30.

For the compound `Cc1ccc2c(-c3ccc(C(F)(F)F)cc3)nc([C@H]3CCO[C@@H](c4cnn(C5CC5)c4)C3)nc2n1` [Example 217, 2-((2R,4S)-2-(1-cyclopropyl-1H-pyrazol-4-yl)tetrahydro-2H-pyran-4-yl)-7-methyl-4-(4-(trifluoromethyl)phenyl)pyrido [2,3-d]pyrimidine], the pEC50 is over 7.30.

`Cc1nc2nc(N3CCOC(c4cc[nH]c(=O)c4)C3)nc(-c3ccc(C(F)(F)F)nc3)c2nc1C` (stereo not drawn) [Example 194, 4-(4-(6,7-dimethyl-4-(6-(trifluoromethyl)pyridin-3-yl)pteridin-2-yl)morpholin-2-yl)pyridin-2(1H)-one] showed a pEC50 of over 7.30.

As to `Cc1nc2nc([C@H]3CCO[C@@H](c4cnn(C5CC5)c4)C3)nc(C3C[C@@H](F)[C@@H](F)C3)c2nc1C` (stereo partly drawn) [Example 245, 2-((2R,4S)-2-(1-cyclopropyl-1H-pyrazol-4-yl)tetrahydro-2H-pyran-4-yl)-4-((3R,4S)-3,4-difluorocyclopentyl)-6,7-dimethylpteridine], the pEC50 is 5.52 to 6.30.

For the compound `Cc1cc([C@H]2C[C@@H](c3cc(-c4ccc(Cl)cc4F)c4cc(C)c(C)nc4n3)CCO2)ccn1` [Example 184, 5-(4-chloro-2-fluorophenyl)-2,3-dimethyl-7-((2R,4S)-2-(2-methylpyridin-4-yl)tetrahydro-2H-pyran-4-yl)-1,8-naphthyridine], the pEC50 is over 7.30.

`Cc1nc2nc([C@H]3CCO[C@@H](c4ccc(=O)n(C)c4)C3)nc(-c3ccc(F)cc3F)c2nc1C` [Example 201] gave a pEC50 of 5.52 to 6.30.

Regarding `Cc1nc2nc([C@@H]3CCO[C@H](c4cnn(C5CC5)c4)C3)nc(-c3cc(F)c(F)cc3F)c2nc1C` [Example 152, 2-((2S,4R)-2-(1-cyclopropyl-1H-pyrazol-4-yl)tetrahydro-2H-pyran-4-yl)-6,7-dimethyl-4-(2,4,5-trifluorophenyl)pteridine], the pEC50 was 5.52 to 6.30.

`[2H][C@@]1(c2cnn(C3CC3)c2)C[C@H](c2nc(-c3ccc(F)cc3F)c3nc(C)c(C)nc3n2)CCO1` (single isomer, unassigned) [Example 183] gave a pEC50 of 4.00 to 5.52.

`Cc1nc2nc(-c3ccc(Cl)cc3F)cc([C@H]3CCO[C@@H](c4cnn(C5CC5)c4)C3)c2nc1C` [Example 237, 6-(4-chloro-2-fluorophenyl)-8-((2R,4S)-2-(1-cyclopropyl-1H-pyrazol-4-yl)tetrahydro-2H-pyran-4-yl)-2,3-dimethylpyrido[2,3-b]pyrazine] gave a pEC50 of over 7.30.

In turn, `Cc1cc2c(-c3ccc(Cl)cc3F)cc([C@H]3CCO[C@@H](c4cnn(C5CC5)c4)C3)nc2nc1C` [Example 233, 5-(4-chloro-2-fluoro-phenyl)-7-[(2R,4S)-2-(1-cyclopropylpyrazol-4-yl)tetrahydropyran-4-yl]-2,3-dimethyl-1,8-naphthyridine] had a pEC50 of over 7.30.

`[2H]C1([2H])C[C@@H](c2nc(-c3ccc(Cl)cc3F)c3nc(C)c(C)nc3n2)C[C@@]([2H])(c2cnn(C3CC3)c2)O1` [Example 193, 4-(4-chloro-2-fluorophenyl)-2-((2S,4R)-2-(1-cyclopropyl-1H-pyrazol-4-yl)tetrahydro-2H-pyran-4-yl-2,6,6-d3)-6,7-dimethylpteridine] showed a pEC50 of 6.30 to 7.30.

`Cc1cc([C@@H]2C[C@H](c3cc(-c4ccc(Cl)cc4F)c4cc(C)c(C)nc4n3)CCO2)ccn1` [Example 185, 5-(4-chloro-2-fluorophenyl)-2,3-dimethyl-7-((2S,4R)-2-(2-methylpyridin-4-yl)tetrahydro-2H-pyran-4-yl)-1,8-naphthyridine]: the pEC50 is 5.52 to 6.30.

Regarding `Cc1nc2cc([C@H]3CCO[C@@H](c4cnn(C5CC5)c4)C3)cc(-c3ccc(F)cc3Cl)c2nc1C` [Example 229, 5-(2-chloro-4-fluorophenyl)-7-((2R,4S)-2-(1-cyclopropyl-1H-pyrazol-4-yl)tetrahydro-2H-pyran-4-yl)-2,3-dimethylquinoxaline], the pEC50 was 6.30 to 7.30.

The experiment is the same for the next values; noted with them: HEK293 cells expressing human TREM2 and DAP12, Table D-2.
`CCCc1nc2nc(N3C[C@@H](C)O[C@@H](c4cnn(C5CC5)c4)C3)nc(-c3ccc(F)cc3F)c2nc1C` (single isomer, unassigned) [Example I-1288] gave a pEC50 of over 7.30.

In turn, `Cc1nc2nc(N3C[C@@H](C)O[C@@H](c4cnn(C5CC5)c4)C3)nc(-c3ccc(F)cc3F)c2nc1C(F)F` [Example I-1609, (2S,6R)-2-(1-cyclopropylpyrazol-4-yl)-4-[6-(difluoromethyl)-4-(2,4-difluorophenyl)-7-methyl-pteridin-2-yl]-6-methyl-morpholine] showed a pEC50 of over 7.30.

For `COc1nc2c(-c3ccc(Cl)cc3F)nc([C@@H]3CCO[C@H](c4cnn(C5CC5)c4)C3)nc2nc1C` (racemic) [Example I-1221, 4-(4-chloro-2-fluoro-phenyl) −6-methoxy-7-methyl-2-[rac-(2S,4R)-2-(1-cyclopropylpyrazol-4-yl)tetrahydropyran-4-yl]pteridine], the pEC50 was over 7.30.

In turn, `Cc1nc2nc([C@H]3CCO[C@@H](c4cnc(C5CC5)o4)C3)nc(-c3ccc(F)cc3F)c2nc1C` [Example I-1699, 2-cyclopropyl-5-[(2R,4S)-4-[4-(2,4-difluorophenyl)-6,7-dimethyl-pteridin-2-yl]tetrahydropyran-2-yl]oxazole] gave a pEC50 of 6.30 to 7.30.

`Cc1cc(N2C[C@@H](c3nc(-c4ccc(F)cc4F)c4nc(C)c(C)nc4n3)CCC2=O)ccn1` [Example I-1513] showed a pEC50 of 6.30 to 7.30.

Compound `Cc1nc2nc([C@H]3CCO[C@@H](c4cnn(CC5CC5)c4)C3)nc(-c3ccc(C(F)(F)F)cc3F)c2nc1C` [Example I-1577, 2-[(2R,4S)-2-[1-(cyclopropylmethyl)pyrazol-4-yl]tetrahydropyran-4-yl]-4-[2-fluoro-4-(trifluoromethyl)phenyl]-6,7-dimethyl-pteridine] had a pEC50 of over 7.30.

`Cc1nc2nc([C@H]3CCO[C@@H](c4cnn(C56CC(C5)C6)c4)C3)nc(-c3ccc(F)cc3F)c2nc1C` [Example I-1668, 2-[(2R,4S)-2-[1-(1-bicyclo [1.1.1]pentanyl)pyrazol-4-yl]tetrahydropyran-4-yl]-4-(2,4-difluorophenyl)-6,7-dimethyl-pteridine] had a pEC50 of over 7.30.

Compound `Cc1cc2c(C3CCC(C(F)F)CC3)nc(N3C[C@@H](C)O[C@@H](c4cnn(C5CC5)c4)C3)nc2nc1C` (stereo partly drawn) [Example I-1328, (2S,6R)-2-(1-cyclopropylpyrazol-4-yl)-4-[4-[4-(difluoromethyl)cyclohexyl]-6,7-dimethyl-pyrido[2,3-d]pyrimidin-2-yl]-6-methyl-morpholine] showed a pEC50 of over 7.30.

`Fc1cc(Cl)ccc1-c1nc([C@@H]2CCO[C@H](c3cnn(C4CC4)c3)C2)nc2nc(CC(F)(F)F)cnc12` [Example I-1338, 4-(4-chloro-2-fluoro-phenyl)-2-[(2S,4R)-2-(1-cyclopropylpyrazol-4-yl)tetrahydropyran-4-yl]-7-(2,2,2-trifluoroethyl)pteridine] had a pEC50 of 6.30 to 7.30.

`CCc1nc2c(-c3ccc(F)cc3F)nc([C@H]3CCO[C@@H](c4cnn(C5CC5)c4)C3)cc2nc1C` [Example I-1557, 7-((2R,4S)-2-(1-cyclopropyl-1H-pyrazol-4-yl)tetrahydro-2H-pyran-4-yl)-5-(2,4-difluorophenyl)-3-ethyl-2-methylpyrido[3,4-b]pyrazine] gave a pEC50 of 6.30 to 7.30.

Compound `Cc1nc2nc([C@H]3CC(CO)O[C@@H](c4cnn(C5CC5)c4)C3)nc(-c3ccc(F)cc3F)c2nc1C` (stereo in doubt) [Example I-1624, [(2S,4R,6R)-6-(1-cyclopropylpyrazol-4-yl)-4-[4-(2,4-difluorophenyl)-6,7-dimethyl-pteridin-2-yl]tetrahydropyran-2-yl]methanol] showed a negative logarithm of the EC50 (pEC50) of 5.52 to 6.30.

`Cc1nc2cc([C@H]3CCO[C@@H](c4cnn(C5CC5)c4)C3)nc(-c3ccc(F)cc3F)c2nc1CF` [Example I-1456, 7-((2R,4S)-2-(1-cyclopropyl-1H-pyrazol-4-yl)tetrahydro-2H-pyran-4-yl)-5-(2,4-difluorophenyl)-3-(fluoromethyl)-2-methylpyrido[3,4-b]pyrazine] had a pEC50 of over 7.30.

`COC1(c2nc(-c3ccc(Cl)cc3F)c3nc(C)c(C)nc3n2)CCO[C@@H](c2cnn(C3CC3)c2)C1` (stereo partly drawn) [Example I-1210, 4-(4-chloro-2-fluorophenyl)-2-((2R)-2-(1-cyclopropyl-1H-pyrazol-4-yl)-4-methoxytetrahydro-2H-pyran-4-yl)-6,7-dimethylpteridine] showed a pEC50 of 5.52 to 6.30.

In turn, `Cc1nc2nc([C@H]3CCO[C@@H](c4cnn(C5CC5)c4)C3)nc(-c3ccc(C(F)F)cc3F)c2nc1C` [Example I-1216, 2-[(2R,4S)-2-(1-cyclopropylpyrazol-4-yl)tetrahydropyran-4-yl]-4-[4-(difluoromethyl)-2-fluoro-phenyl]-6,7-dimethyl-pteridine] gave a pEC50 of over 7.30.
